Measured values reported in US11987543B1, “8-(4-bromobenzylideneamino)naphthalene-1,3-disulfonic acid as an antioxidant compound” (KING FAISAL UNIVERSITY, priority 2023, dated 2024).

Assay: DPPH radical scavenging antioxidant test
Format: biochemical
Details: for A (absorbance read against a blank at 517 nm) / Inhibition (radical scavenging inhibition): 0.2 mL DPPH (0.75 mM), compound 3 μM in ethanol, 30 min incubation in the dark
Protocol: The antioxidant properties of the 8-(4-bromobenzylideneamino)naphthalene-1,3-disulfonic acid were studied by adding 0.2 mL DPPH (0.75 mM)) to compound 8-(4-bromobenzylideneamino)naphthalene-1,3-disulfonic acid (III) (3 μM) in ethanol. After 30 min of incubation in the dark, the absorbance was read against a blank at 517 nm. Ascorbic acid (vitamin C) was used as standard antioxidants (positive control). A blank sample was prepared by 0.2 ml of DPPH in 3 ml ethanol. A negative control sample was run using ethanol instead of the sample. The radical scavenging inhibition was calculated using the following equation: […]

SMILES	A (absorbance read against a blank at 517 nm)	Inhibition (radical scavenging inhibition) (517 nm) [%]	antioxidant potential compared to vitamin C (in words) (DPPH in vitro test, vitamin C as positive control, 517 nm)
O=S(=O)(O)c1cc(S(=O)(=O)O)c2c(/N=C/c3ccc(Br)cc3)cccc2c1 [Product III, 8-(4-bromobenzylideneamino)naphthalene-1,3-disulfonic acid]	0.21	50	high potential as an antioxidant compared to vitamin C
O=C1O[C@H]([C@@H](O)CO)C(O)=C1O [vit c, Ascorbic acid, reference compound]	0.12	74	
